Measured values: patent US20240166627A1, “Terpyridinedione compound or salt thereof, and preparation method and application thereof” (SHENZHEN SALUBRIS PHARMACEUTICALS CO., LTD., priority 2021, published 2024)

Test system: production of TNFα in U937
Experiment: Releasing TNFα from U937 induced by LPS
Format: cell-based
Details: Homo sapiens, U-937; PMA-differentiated U937, LPS 100 ng/ml, 4 h; read-out: IC50 value that the compound inhibits the production of TNFα
Procedure, shortened: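 U937 cells differentiated with PMA (20 ng/ml, 48 h) were pretreated with compound (0.1% DMSO final) for 30 min at 37 °C, then stimulated with LPS (100 ng/ml) for 4 h. Supernatant TNFα was quantified by ELISA against a kit standard curve, and IC50 came from nonlinear fitting.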

Question: How did the IC50 turn out when Cc1cnc(-n2cccc(C(C)(C)O)c2=O)cc1-n1c(C)cc(OCc2ncc(F)cc2F)c(Cl)c1=O [Comparative example 1] was run?
Answer: 1.63 nM
